Results reported in ChEMBL document CHEMBL1201862, “PubChem BioAssay data set” (2004).
Calls of active or inactive are those of the source.

Tests used:
[1] = THP-1 cell cytotoxicity, dose response, cytotoxicity control for non-replicating M. tuberculosis project (AID 489025); type: functional
Caspase-9 = Caspase-9 (Homo sapiens, UniProt P55211); assay: caspase-9 enzyme inhibition, dose response, selectivity assay for caspase-6 inhibitor project, biochemical, fluorescence, plate reader, cherry-picked samples (AID 743293)
Sequence of Caspase-9 (P55211 1-315 limits assumed): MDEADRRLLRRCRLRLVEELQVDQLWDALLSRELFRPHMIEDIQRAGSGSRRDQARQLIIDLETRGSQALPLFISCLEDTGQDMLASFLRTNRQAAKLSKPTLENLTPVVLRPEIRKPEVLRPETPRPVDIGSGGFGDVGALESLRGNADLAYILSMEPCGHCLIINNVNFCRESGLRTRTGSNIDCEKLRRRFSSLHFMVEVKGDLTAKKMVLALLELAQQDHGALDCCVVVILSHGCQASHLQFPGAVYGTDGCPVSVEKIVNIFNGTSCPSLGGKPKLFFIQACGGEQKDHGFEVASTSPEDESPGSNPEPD
Sequence of Caspase-9 (P55211 331-416 limits assumed): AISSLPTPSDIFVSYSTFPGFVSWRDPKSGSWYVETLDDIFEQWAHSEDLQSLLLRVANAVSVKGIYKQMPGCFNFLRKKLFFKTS

Caspase-3 = target: T1, Caspase-3 (Homo sapiens, UniProt P42574); assay: caspase-3 enzyme inhibitors, selectivity check, dose response, selectivity assay for caspase-6 allosteric inhibitor project, biochemical, fluorescence, cherry-picked samples (AID 743291)
T1 sequence (P42574 whole entry): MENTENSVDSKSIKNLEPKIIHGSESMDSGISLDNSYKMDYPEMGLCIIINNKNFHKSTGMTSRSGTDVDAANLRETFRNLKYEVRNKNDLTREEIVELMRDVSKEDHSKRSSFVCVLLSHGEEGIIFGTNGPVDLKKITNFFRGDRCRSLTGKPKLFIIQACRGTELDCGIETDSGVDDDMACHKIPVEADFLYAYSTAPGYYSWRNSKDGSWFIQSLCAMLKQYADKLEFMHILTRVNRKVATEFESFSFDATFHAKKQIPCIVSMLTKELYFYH

Insulin-degrading enzyme = target: T2, Insulin-degrading enzyme (Homo sapiens, UniProt P14735); assay: activators of recombinant IDE enzyme, dose response, counter-screen for IDE activator project, biochemical, fluorescence polarization (AID 588681)
T2 sequence (P14735 whole entry): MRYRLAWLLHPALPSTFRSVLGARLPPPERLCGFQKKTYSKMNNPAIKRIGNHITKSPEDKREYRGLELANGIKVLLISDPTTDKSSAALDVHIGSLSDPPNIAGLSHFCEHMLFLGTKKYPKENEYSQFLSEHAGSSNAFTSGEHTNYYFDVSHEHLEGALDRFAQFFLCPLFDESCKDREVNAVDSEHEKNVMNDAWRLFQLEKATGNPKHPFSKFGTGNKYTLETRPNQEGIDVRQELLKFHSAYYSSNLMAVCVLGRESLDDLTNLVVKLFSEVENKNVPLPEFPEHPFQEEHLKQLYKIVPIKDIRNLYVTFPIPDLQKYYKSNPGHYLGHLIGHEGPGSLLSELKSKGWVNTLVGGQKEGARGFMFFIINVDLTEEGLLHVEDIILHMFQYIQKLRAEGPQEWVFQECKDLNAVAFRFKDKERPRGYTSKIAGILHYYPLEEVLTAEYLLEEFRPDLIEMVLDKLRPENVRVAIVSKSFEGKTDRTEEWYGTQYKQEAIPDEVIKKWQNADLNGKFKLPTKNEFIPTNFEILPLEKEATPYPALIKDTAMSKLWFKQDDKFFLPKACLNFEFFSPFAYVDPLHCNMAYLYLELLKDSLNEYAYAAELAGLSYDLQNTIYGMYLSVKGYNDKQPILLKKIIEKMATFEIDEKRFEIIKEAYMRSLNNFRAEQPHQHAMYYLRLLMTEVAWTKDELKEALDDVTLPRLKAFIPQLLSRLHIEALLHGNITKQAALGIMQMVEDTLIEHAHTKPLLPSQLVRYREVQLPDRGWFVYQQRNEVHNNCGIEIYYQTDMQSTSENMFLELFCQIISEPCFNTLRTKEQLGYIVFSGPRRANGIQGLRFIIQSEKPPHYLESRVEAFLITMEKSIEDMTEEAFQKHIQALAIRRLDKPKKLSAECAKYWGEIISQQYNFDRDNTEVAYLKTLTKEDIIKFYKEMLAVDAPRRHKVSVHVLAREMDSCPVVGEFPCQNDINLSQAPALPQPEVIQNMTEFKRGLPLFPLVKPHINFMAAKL

[2] = target: Heat shock protein HSP 90-alpha (Homo sapiens, UniProt P07900); assay: Luminescence-based dose response biochemical high throughput screening assay for inhibitors of the Heat Shock Protein 90 (HSP90). [Related pubchem assays: 1831 (Summary AID.), 1846 (Confirmation screen.), 1789 (Primary screen.)]
SUMO-activating enzyme = SUMO-activating enzyme (Homo sapiens, UniProt Q9UBT2); assay: SUMOylation inhibitor hit validation, confirmation, SUMOylation inhibitor project, biochemical, AlphaScreen (AID 2018); type: functional
Sequence of SUMO-activating enzyme (Q9UBE0 whole entry): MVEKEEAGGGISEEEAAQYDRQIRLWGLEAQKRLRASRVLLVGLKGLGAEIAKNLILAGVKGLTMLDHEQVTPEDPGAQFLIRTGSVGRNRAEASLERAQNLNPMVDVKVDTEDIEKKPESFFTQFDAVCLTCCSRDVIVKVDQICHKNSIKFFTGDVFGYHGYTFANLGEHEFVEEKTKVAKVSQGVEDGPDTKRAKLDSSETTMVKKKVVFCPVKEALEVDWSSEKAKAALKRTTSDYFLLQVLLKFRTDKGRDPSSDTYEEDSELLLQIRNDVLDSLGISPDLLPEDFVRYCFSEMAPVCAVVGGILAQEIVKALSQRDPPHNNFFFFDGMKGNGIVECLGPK
Sequence of SUMO-activating enzyme (Q9UBT2 whole entry): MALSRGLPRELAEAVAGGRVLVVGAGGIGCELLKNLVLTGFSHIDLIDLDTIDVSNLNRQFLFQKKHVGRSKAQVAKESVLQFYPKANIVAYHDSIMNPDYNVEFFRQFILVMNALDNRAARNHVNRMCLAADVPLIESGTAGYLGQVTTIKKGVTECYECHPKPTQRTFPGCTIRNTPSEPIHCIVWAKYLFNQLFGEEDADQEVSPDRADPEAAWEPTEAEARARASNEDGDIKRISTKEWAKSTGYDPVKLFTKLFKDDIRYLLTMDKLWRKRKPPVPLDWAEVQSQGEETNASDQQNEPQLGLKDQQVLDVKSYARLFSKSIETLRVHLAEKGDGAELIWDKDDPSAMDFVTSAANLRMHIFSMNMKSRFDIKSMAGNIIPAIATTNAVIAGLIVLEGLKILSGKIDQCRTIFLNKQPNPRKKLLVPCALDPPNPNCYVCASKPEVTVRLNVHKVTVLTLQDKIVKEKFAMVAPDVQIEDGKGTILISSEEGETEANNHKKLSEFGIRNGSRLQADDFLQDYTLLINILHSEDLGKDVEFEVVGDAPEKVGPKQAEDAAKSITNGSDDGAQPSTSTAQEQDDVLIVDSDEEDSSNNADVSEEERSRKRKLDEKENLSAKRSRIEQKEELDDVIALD

[3] = target: Protein kinase C zeta type (Homo sapiens, UniProt Q05513); type: functional;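 note: measured as one member of a broad kinase profiling panel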
[4] = target: Phosphorylase b kinase gamma catalytic chain, liver/testis isoform (Homo sapiens, UniProt P15735); type: functional;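 note: PHKG2 measured as one member of a kinome-wide kinase panel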
[5] = target: Tyrosine-protein kinase Lck (Homo sapiens, UniProt P06239); type: functional;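 note: lck was assayed as one member of a kinase panel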
[6] = target: Death-associated protein kinase 3 (Homo sapiens, UniProt O43293); type: functional;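 note: measured as one member of a kinome-wide profiling panel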
[7] = target: Cyclin-dependent kinase 2 (Homo sapiens, UniProt P24941); type: functional;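 note: CDK2 measured as one member of a broad kinome profiling panel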
[8] = target: Casein kinase I isoform alpha (Homo sapiens, UniProt P48729); type: functional
[9] = target: Tyrosine-protein kinase JAK3 (Homo sapiens, UniProt P52333); type: functional
[10] = target: Ribosomal protein S6 kinase alpha-5 (Homo sapiens, UniProt O75582); type: functional
[11] = target: Tyrosine-protein kinase ITK/TSK (Homo sapiens, UniProt Q08881); type: functional;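 note: affinity for ITK measured as one member of a broad kinase panel profiling binding across the kinome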
[12] = target: Testis-specific serine/threonine-protein kinase 1 (Homo sapiens, UniProt Q9BXA7); type: functional
Sequence of Testis-specific serine/threonine-protein kinase 1 (Q9BXA7 whole entry): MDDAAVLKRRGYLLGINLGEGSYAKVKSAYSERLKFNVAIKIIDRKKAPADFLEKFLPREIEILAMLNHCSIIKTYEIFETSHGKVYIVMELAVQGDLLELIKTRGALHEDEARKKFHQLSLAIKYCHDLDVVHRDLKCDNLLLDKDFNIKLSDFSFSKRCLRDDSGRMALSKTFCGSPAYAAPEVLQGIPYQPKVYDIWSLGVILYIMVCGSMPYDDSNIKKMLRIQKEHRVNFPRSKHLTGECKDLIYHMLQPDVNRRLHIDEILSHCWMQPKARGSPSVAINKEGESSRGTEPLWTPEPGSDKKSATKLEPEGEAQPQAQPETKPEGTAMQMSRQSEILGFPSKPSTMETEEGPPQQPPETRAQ

[13] = target: Tyrosine-protein kinase ABL1 (Homo sapiens, UniProt P00519); type: functional
Sequence of Tyrosine-protein kinase ABL1 (P00519 whole entry): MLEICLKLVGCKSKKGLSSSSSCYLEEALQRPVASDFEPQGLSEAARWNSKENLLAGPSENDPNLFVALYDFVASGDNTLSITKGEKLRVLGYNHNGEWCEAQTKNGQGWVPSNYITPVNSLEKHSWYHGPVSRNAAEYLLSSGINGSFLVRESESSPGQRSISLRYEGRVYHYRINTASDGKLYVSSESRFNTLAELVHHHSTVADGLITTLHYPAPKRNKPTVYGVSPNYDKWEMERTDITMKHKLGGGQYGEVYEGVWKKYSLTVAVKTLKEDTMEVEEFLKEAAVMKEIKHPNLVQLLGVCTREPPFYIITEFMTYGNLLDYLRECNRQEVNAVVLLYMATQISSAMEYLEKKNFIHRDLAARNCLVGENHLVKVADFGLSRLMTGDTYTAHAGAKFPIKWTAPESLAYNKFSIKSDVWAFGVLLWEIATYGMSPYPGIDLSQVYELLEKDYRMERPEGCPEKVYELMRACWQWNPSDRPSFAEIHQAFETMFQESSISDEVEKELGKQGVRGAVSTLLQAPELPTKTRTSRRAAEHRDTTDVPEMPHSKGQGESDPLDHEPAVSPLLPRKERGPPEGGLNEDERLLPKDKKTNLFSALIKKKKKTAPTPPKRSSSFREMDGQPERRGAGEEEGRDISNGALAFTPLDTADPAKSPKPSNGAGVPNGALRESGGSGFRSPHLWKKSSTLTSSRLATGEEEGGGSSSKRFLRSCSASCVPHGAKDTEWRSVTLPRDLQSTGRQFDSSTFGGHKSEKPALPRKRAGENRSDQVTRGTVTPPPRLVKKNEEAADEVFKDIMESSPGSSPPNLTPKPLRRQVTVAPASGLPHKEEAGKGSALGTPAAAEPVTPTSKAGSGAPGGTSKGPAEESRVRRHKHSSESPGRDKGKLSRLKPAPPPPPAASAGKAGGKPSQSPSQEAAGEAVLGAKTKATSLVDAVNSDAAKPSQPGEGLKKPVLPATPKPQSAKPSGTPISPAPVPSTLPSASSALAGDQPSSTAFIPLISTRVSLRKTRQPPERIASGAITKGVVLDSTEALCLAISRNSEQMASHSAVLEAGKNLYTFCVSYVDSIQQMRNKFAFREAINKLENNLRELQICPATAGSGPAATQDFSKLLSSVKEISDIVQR

[14] = target: Insulin-like growth factor 1 receptor (Homo sapiens, UniProt P08069); assay: Navigating the Kinome. Panel member name: IGF1R; type: functional
[15] = target: cAMP-dependent protein kinase catalytic subunit PRKX (Homo sapiens, UniProt P51817); type: functional
Sequence of cAMP-dependent protein kinase catalytic subunit PRKX (P51817 whole entry): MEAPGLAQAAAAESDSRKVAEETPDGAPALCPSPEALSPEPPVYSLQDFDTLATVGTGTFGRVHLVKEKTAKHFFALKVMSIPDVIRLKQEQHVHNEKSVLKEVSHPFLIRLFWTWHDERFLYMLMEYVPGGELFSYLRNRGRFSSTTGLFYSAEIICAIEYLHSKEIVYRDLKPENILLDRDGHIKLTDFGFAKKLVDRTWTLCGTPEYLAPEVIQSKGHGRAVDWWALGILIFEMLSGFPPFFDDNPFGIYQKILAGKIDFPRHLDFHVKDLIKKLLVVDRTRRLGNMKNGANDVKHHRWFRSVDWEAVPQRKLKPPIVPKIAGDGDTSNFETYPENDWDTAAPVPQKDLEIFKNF

[16] = target: RAC-alpha serine/threonine-protein kinase (Homo sapiens, UniProt P31749); type: functional;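 note: AKT1 affinity measured as one member of a kinome-wide kinase profiling panel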
[17] = target: Cyclin-dependent kinase 1 (Homo sapiens, UniProt P06493); type: functional;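 note: Kinome-wide panel profiling, with the target listed as panel member CDC2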
[18] = target: STE20-like serine/threonine-protein kinase (Homo sapiens, UniProt Q9H2G2); type: functional
[19] = target: Serine/threonine-protein kinase MRCK alpha (Homo sapiens, UniProt Q5VT25); type: functional
Sequence of Serine/threonine-protein kinase MRCK alpha (Q5VT25 whole entry): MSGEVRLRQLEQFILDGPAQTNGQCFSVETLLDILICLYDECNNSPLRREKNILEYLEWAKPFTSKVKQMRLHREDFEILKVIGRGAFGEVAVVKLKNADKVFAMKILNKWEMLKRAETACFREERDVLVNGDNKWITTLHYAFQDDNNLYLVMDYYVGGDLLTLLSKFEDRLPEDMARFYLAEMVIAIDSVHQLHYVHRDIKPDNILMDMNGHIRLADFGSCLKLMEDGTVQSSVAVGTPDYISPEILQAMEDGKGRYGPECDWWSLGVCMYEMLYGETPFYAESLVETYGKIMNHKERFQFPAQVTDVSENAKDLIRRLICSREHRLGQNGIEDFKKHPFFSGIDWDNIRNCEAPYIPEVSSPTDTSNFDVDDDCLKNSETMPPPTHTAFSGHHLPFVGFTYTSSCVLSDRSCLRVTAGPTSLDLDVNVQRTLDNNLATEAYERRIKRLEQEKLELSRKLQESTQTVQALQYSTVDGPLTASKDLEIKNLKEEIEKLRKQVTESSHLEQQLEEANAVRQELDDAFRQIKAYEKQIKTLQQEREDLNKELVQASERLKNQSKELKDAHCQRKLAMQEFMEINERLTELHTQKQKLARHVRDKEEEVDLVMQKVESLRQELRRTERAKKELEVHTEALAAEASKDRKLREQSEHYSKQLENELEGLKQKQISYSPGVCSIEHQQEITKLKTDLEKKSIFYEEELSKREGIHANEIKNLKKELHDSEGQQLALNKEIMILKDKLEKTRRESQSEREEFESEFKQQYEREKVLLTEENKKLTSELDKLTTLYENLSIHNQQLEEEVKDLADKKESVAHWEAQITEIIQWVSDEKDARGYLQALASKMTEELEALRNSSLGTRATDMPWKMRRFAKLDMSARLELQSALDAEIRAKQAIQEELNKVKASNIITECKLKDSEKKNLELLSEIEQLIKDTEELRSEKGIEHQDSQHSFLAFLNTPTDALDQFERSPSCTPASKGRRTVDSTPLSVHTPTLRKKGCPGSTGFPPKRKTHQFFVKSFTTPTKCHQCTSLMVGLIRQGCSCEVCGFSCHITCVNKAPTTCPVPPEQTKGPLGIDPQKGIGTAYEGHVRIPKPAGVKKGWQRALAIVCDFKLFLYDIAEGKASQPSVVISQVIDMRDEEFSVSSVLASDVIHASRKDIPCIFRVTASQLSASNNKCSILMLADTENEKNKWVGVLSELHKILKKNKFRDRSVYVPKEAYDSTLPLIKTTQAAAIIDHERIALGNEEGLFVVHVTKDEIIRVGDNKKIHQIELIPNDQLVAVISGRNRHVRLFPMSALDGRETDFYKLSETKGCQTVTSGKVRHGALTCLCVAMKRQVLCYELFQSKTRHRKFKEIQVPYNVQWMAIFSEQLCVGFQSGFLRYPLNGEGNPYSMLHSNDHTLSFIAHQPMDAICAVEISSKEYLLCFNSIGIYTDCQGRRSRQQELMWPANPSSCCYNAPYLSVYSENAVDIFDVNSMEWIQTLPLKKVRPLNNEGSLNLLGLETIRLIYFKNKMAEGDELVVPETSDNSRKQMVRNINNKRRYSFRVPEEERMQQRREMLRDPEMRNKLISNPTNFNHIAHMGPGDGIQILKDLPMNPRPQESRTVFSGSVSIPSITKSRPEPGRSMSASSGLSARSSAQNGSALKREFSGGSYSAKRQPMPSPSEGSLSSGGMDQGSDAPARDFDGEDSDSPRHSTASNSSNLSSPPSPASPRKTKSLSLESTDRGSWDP

SMILES: O=[N+]([O-])c1c(Nc2ccccn2)cc(Cl)c2nonc12
- CC50 [1]: 20300 nM (active)
- AC50 (Caspase-9): 17400 nM (active)
- AC50 (Caspase-3): 7840 nM (active)

SMILES: CC[C@@H](C)[C@H](CNC)NC[C@@H](Cc1cccc2ccccc12)NCCc1cccc(C(F)(F)F)c1
- EC50 (Insulin-degrading enzyme): > 54700 nM (inactive)

SMILES: Cc1ccc(S(=O)(=O)/N=C2\C=C(Nc3cccc(C(=O)O)c3)C(=O)c3ccccc32)cc1
- IC50 [2]: 524 nM (active)

SMILES: Cc1ccc(C(=O)NC2(O)C(=O)c3ccccc3C2=O)cc1C
- IC50 (SUMO-activating enzyme): 870 nM (active)

SMILES: CC(C)(CO)CNc1nccc(-c2c(-c3ccc(F)cc3)nc3c(CC4CC4)nccn23)n1
- Ki [3]: > 7940 nM (inactive)
- Ki [4]: > 5010 nM (inactive)
- Ki [5]: > 2510 nM (inactive)
- Ki [6]: > 1260 nM (inactive)
- Ki [7]: > 7940 nM (inactive)
- Ki [8]: 1260 nM (active)
- Ki [9]: > 1580 nM (inactive)
- Ki [10]: > 2000 nM (inactive)
- Ki [11]: > 1580 nM (inactive)
- Ki [12]: > 1580 nM (inactive)
- Ki [13]: > 631 nM (inactive)
- Ki [14]: > 2000 nM (inactive)
- Ki [15]: > 1580 nM (inactive)
- Ki [16]: > 7940 nM (inactive)
- Ki [17]: > 7940 nM (inactive)
- Ki [18]: > 10000 nM (inactive)
- Ki [19]: > 10000 nM (inactive)
